{"source": "ChEMBL document CHEMBL5620390", "about": "“A novel multifunctional mitochondrion-targeting NIR fluorophore probe inhibits tumour proliferation and metastasis through the PPARγ/ROS/β-catenin pathway” (Eur J Med Chem, 2023)", "key": {"[1]": {"assay": "Drug uptake in mouse B16-F10 cells assessed as fluorescence intensity at 2.5 uM incubated for 1 hr by confocal laser scanning microscopic analysis", "format": "ADME, cell-based", "settings": "b16-f10, 1 h"}, "[2]": {"test_system": "A-375", "assay": "Induction of cell cycle arrest in human A-375 cells assessed as accumulation of cells at G0/G1 phase incubated for 24 hrs by PI staining based flow cytometry analysis (reference value: 12.05%)", "format": "functional"}, "[3]": {"test_system": "B16-F10", "assay": "Inhibition of cell migration in mouse B16-F10 cells after 24 hrs by transwell assay", "format": "functional, cell-based", "settings": "dose 0.31-1.25 µM"}, "[4]": {"test_system": "B16-F10", "assay": "Antitumor activity against mouse B16-F10 cells inoculated in mouse assessed as reduction in MMP9 expression at 2 mg/kg, ip administered every other day and measured on day 18 by immunohistochemistry analysis", "format": "functional, organism-based", "settings": "time 18.0 day"}, "[5]": {"assay": "Toxicity in C57BL/6J mouse inoculated with mouse B16-F10 cells assessed as reduction in body weight at 2 mg/kg, ip administered every other day and measured after 16 days", "format": "organism-based", "settings": "in vivo, 384 h, time 16 day"}, "[6]": {"test_system": "B16-F10", "assay": "Inhibition of Wnt/beta-catenin signaling in mouse B16-F10 cells assessed as reduction in beta-catenin expression at 1.25 uM preincubated with rosiglitazone for 24 hrs followed by compound addition and measured after 24 hrs in presence of H2O2", "format": "cell-based"}, "[7]": {"assay": "Cytotoxicity against mouse B16-F10 cells assessed as cell viability at 40 uM incubated for 24 hrs by MTT assay", "format": "toxicity, cell-based", "settings": "read-out: Activity"}, "[8]": {"test_system": "A-375", "assay": "Inhibition of cell metastasis in human A-375 cells assessed as reduction in MMP2 protein level at 0.31 to 1.25 uM after 24 hrs by Western blotting analysis", "format": "functional, cell-based", "settings": "dose 0.31-1.25 µM"}, "[9]": {"test_system": "A-375", "assay": "Induction of ROS generation in human A-375 cells assessed as reduction in PPARgamma expression level at 1.25 uM preincubated with rosiglitazone for 24 hrs followed by compound addition for 24 hrs", "format": "functional, cell-based"}, "[10]": {"test_system": "B16-F10", "assay": "Antitumor activity against mouse B16-F10 cells inoculated in mouse assessed as reduction in lung melanoma nodules at 2 mg/kg, ip administered every other day and measured on day 18 by immunohistochemistry analysis", "format": "functional, organism-based", "settings": "time 18.0 day"}, "[11]": {"assay": "Drug uptake in mouse B16-F10 cells mitochondria at 2.5 uM incubated for 25 mins by mito-tracker green dye based confocal laser scanning fluorescence microscopy analysis", "format": "ADME", "settings": "b16-f10, 25 min"}, "[12]": {"test_system": "A-375", "assay": "Antiproliferative activity against human A-375 cells assessed as inhibition of cell growth after 24 to 72 hrs by MTT assay", "format": "functional, cell-based"}, "[13]": {"assay": "Drug uptake in human HeLa cells assessed as fluorescence intensity at 2.5 uM incubated for 1 hr by confocal laser scanning microscopic analysis", "format": "ADME, cell-based"}, "[14]": {"assay": "Drug uptake in human MDA-MB-231 cells assessed as fluorescence intensity at 2.5 uM incubated for 1 hr by confocal laser scanning microscopic analysis", "format": "ADME, cell-based", "settings": "mda-mb-231, 1 h"}, "[15]": {"test_system": "A-375", "assay": "Induction of ROS generation in human A-375 cells assessed as reduction in GPX1 expression level at 0.31 to 1.25 uM incubated for 24 hrs", "format": "functional, cell-based", "settings": "dose 0.31-1.25 µM"}, "[16]": {"assay": "Toxicity in C57BL/6J mouse inoculated with mouse B16-F10 cells assessed as reduction in body weight at 2 mg/kg, ip administered every other day and measured after 14 days", "format": "organism-based", "parameters": "scale not given: the % may be the effect or the level left", "settings": "in vivo, 336 h, time 14 day"}, "[17]": {"test_system": "B16-F10", "assay": "Induction of cell cycle arrest in mouse B16-F10 cells assessed as reduction in cyclin E1 protein level at 0.31 to 1.25 uM after 24 hrs by Western blotting analysis", "format": "functional, cell-based", "settings": "dose 0.31-1.25 µM"}, "[18]": {"test_system": "B16-F10", "assay": "Induction of ROS generation in mouse B16-F10 cells assessed as reduction in GPX1 expression level at 1.25 uM preincubated with rosiglitazone for 24 hrs followed by compound addition for 24 hrs", "format": "functional, cell-based"}, "[19]": {"test_system": "B16-F10", "assay": "Antitumor activity against mouse B16-F10 cells inoculated in mouse assessed as increase in E-cadherin expression at 2 mg/kg, ip administered every other day and measured on day 18 by immunohistochemistry analysis", "format": "functional, organism-based", "settings": "time 18.0 day"}, "[20]": {"test_system": "B16-F10", "assay": "Antitumor activity against mouse B16-F10 cells inoculated in mouse assessed as reduction in tumor invasion at 2 mg/kg, ip administered every other day and measured on day 18 by H and E staining based assay", "format": "functional, organism-based", "settings": "time 18.0 day"}, "[21]": {"assay": "Drug uptake in human A-375 cells mitochondria at 2.5 uM incubated for 45 mins by mito-tracker green dye based confocal laser scanning fluorescence microscopy analysis", "format": "ADME", "settings": "a-375, 0.75 h"}, "[22]": {"test_system": "B16-F10", "assay": "Induction of mitochondrial damage in mouse B16-F10 cells assessed as mitochondrial swelling at 2.5 uM incubated for 24 hrs by TEM analysis", "format": "functional, cell-based"}, "[23]": {"assay": "Drug uptake in mouse B16-F10 cells implanted in C57BL/6J mouse assessed as fluorescence aggregation in liver at 3 mg/kg, iv measured after 12 hrs", "format": "ADME, organism-based", "settings": "in vivo"}, "[24]": {"test_system": "MDA-MB-231", "assay": "Antiproliferative activity against human MDA-MB-231 cells assessed as inhibition of cell growth at 0.31 uM after 72 hrs by MTT assay", "format": "functional", "parameters": "scale not given: the % may be the effect or the level left"}, "[25]": {"test_system": "B16-F10", "assay": "Inhibition of Wnt/beta-catenin signaling in mouse B16-F10 cells assessed as reduction in beta-catenin expression at 1.25 uM incubated for 24 hrs", "format": "cell-based"}, "[26]": {"test_system": "HeLa", "assay": "Antiproliferative activity against human HeLa cells assessed as inhibition of cell growth at 0.31 uM after 72 hrs by MTT assay", "format": "functional", "parameters": "scale not given: the % may be the effect or the level left"}, "[27]": {"test_system": "B16-F10", "assay": "Induction of cell cycle arrest in mouse B16-F10 cells assessed as accumulation of cells at G0/G1 phase incubated for 24 hrs by PI staining based flow cytometry analysis (reference value: 10.93%)", "format": "functional"}, "[28]": {"test_system": "A-375", "assay": "Inhibition of Wnt/beta-catenin signaling in human A-375 cells assessed as reduction in beta-catenin expression at 1.25 uM incubated for 24 hrs", "format": "cell-based"}, "[29]": {"test_system": "B16-F10", "assay": "Antitumor activity against mouse B16-F10 cells inoculated in mouse assessed as reduction in tumor metastasis at 2 mg/kg, ip administered every other day and measured on day 18 by H and E staining based assay", "format": "functional, organism-based", "settings": "time 18.0 day"}, "[30]": {"test_system": "B16-F10", "assay": "Induction of mitochondrial damage in mouse B16-F10 cells assessed as increase in ROS production measured upto 120 mins by DCFH-DA staining based flow cytometry analysis", "format": "functional, cell-based", "settings": "dose 0.16-2.5 µM"}, "[31]": {"assay": "Toxicity in C57BL/6J mouse inoculated with mouse B16-F10 cells assessed as effect on liver morphology at 2 mg/kg, ip administered every other day for 22 days by H and E staining based assay", "format": "organism-based", "settings": "in vivo, 528 h, time 22 day"}, "[32]": {"test_system": "B16-F10", "assay": "Antitumor activity against mouse B16-F10 cells inoculated in mouse assessed as reduction in spleen metastasis at 2 mg/kg, ip administered every other day and measured on day 18 by H and E staining based assay", "format": "functional, organism-based", "settings": "time 18.0 day"}, "[33]": {"test_system": "A-375", "assay": "Induction of cell cycle arrest in human A-375 cells assessed as reduction in cyclin E1 protein level at 0.31 to 1.25 uM after 24 hrs by Western blotting analysis", "format": "functional, cell-based", "settings": "dose 0.31-1.25 µM"}, "[34]": {"assay": "Drug uptake in human A-375 cells assessed as fluorescence intensity at 2.5 uM incubated for 1 hr by confocal laser scanning microscopic analysis", "format": "ADME, cell-based", "settings": "a-375, 1 h"}, "[35]": {"test_system": "A-375", "assay": "Inhibition of colony formation in human A-375 cells at less than 0.63 uM by crystal violet staining based assay", "format": "functional, cell-based"}, "[36]": {"assay": "Toxicity in mouse inoculated with mouse B16-F10 cells assessed as change in body weight at 2 mg/kg, ip administered every other day and measured on day 18", "format": "organism-based", "settings": "in vivo, 432 h, time 18 day"}}, "note": "Active and inactive are the calls of the source. No cut-off for these calls is given here."}
{"smiles": "CC[N+]1=C(/C=C/C2=C(Cl)C(=C/C=C3\\N(CCCCCC(=O)O/C(=N/C4CCCCC4)NC4CCCCC4)c4ccccc4C3(C)C)/CCC2)C(C)(C)c2ccccc21.[Br-]", "values": [{"measurement": "Drug uptake", "setting": "[1]", "value": "Active"}, {"measurement": "Activity", "setting": "[2]", "value": 45.5, "unit": "%"}, {"measurement": "inhibition", "setting": "[3]", "value": "Dose-Dependent Effect"}, {"measurement": "Activity", "setting": "[4]", "value": "Active"}, {"measurement": "Activity", "setting": "[5]", "value": "Non-Toxic"}, {"measurement": "inhibition", "setting": "[6]", "value": "inactive"}, {"measurement": "viability at 24 h, 40 µM", "setting": "[7]", "value": 90, "unit": "%"}, {"measurement": "inhibition", "setting": "[8]", "value": "Active"}, {"measurement": "Activity", "setting": "[9]", "value": "inactive"}, {"measurement": "Activity", "setting": "[10]", "value": "Active"}, {"measurement": "Drug uptake", "setting": "[11]", "value": "Active"}, {"measurement": "IC50", "setting": "[12]", "value": 0.18, "unit": "µM"}, {"measurement": "Activity", "setting": "[12]; time 24-72 hrs", "value": "Dose-Dependent Effect"}, {"measurement": "Drug uptake", "setting": "[13]", "value": "Active"}, {"measurement": "Drug uptake", "setting": "[14]", "value": "Active"}, {"measurement": "Activity", "setting": "[15]", "value": "Active"}, {"measurement": "Activity", "setting": "[16]", "value": 13.5, "unit": "%"}, {"measurement": "Activity", "setting": "[17]", "value": "Active"}, {"measurement": "Activity", "setting": "[18]", "value": "inactive"}, {"measurement": "Activity", "setting": "[19]", "value": "Active"}, {"measurement": "Activity", "setting": "[20]", "value": "Active"}, {"measurement": "Drug uptake", "setting": "[21]", "value": "Active"}, {"measurement": "Activity", "setting": "[22]", "value": "Active"}, {"measurement": "Drug uptake", "setting": "[23]", "value": "Active"}, {"measurement": "Activity", "setting": "[24]", "value": 70, "unit": "%"}, {"measurement": "inhibition", "setting": "[25]", "value": "Active"}, {"measurement": "Activity", "setting": "[26]", "value": 70, "unit": "%"}, {"measurement": "Activity", "setting": "[27]", "value": 40.75, "unit": "%"}, {"measurement": "inhibition", "setting": "[28]", "value": "Active"}, {"measurement": "Activity", "setting": "[29]", "value": "Active"}, {"measurement": "Activity", "setting": "[30]", "value": "Dose-Dependent Effect"}, {"measurement": "Activity", "setting": "[31]", "value": "Non-Toxic"}, {"measurement": "Activity", "setting": "[32]", "value": "Active"}, {"measurement": "Activity", "setting": "[33]", "value": "Active"}, {"measurement": "Drug uptake", "setting": "[34]", "value": "Active"}, {"measurement": "inhibition", "setting": "[35]", "value": "Active"}, {"measurement": "Activity", "setting": "[36]", "value": "Non-Toxic"}]}
